Source: patent US10265276B2, “Pharmaceutical composition for preventing or treating arthritis or inflammatory disease containing 2-methoxy-4-(3-(4-methoxyphenyl)propyl-1-en-1-yl)phenol as active ingredient” (CHUNGBUK NATIONAL UNIVERSITY INDUSTRY-ACADEMIC COOPERATION …, priority 2015, dated 2019)

What was measured:
[1] = tested on: CAIA-induced C57BL/6 mice; test: Collagen antibody-induced arthritis (CAIA) model; type: in vivo, mouse
Description: 14. Induction of rheumatoid arthritis in C57BL/6 mice: To induce rheumatoid arthritis, anti-collagen-II mAbs (CII-Ab, Arthrogen-CIA Arthritogenic Monoclonal Antibody, #53010: Chondrex, Inc., WA, USA) were intraperitoneally (i.p.) injected into 7-week-old male mice on the first day, and 50 μg of LPS was injected on the third day. To evaluate the severity of arthritis, a scoring system was applied according to the criteria.
0. No erythema and swelling are observed.
1. Slight erythema is observed in tarsals and ankle joints.
2. Slight erythema and swelling are observed from an ankle joint to the midfoot.
3. Erythema and swelling extending from ankle joints to the metatarsals are observed.
4. Erythema and severe swelling were observed throughout the ankles, feet, and fingers.
The sum of final scores was recorded daily until the sum reached 16. On the 18th day, each of the mice was anesthetized, and then located on a radiographic view box. Thereafter, a location of each of the mice was adjusted so that the mouse was disposed at a distance of 90 cm from an X-ray source. The radioanalysis on hind legs with arthritis was performed by irradiating the hind legs at […] for 0.01 seconds using an X-ray machine (BLD-150RK, Hradec Kralove, Czech Republic).
15. Immunohistochemical assay: An immunohistochemical assay was carried out using an avidin-biotin-peroxidase method known in the art. Each of joint tissue samples collected from the mice was fixed with formalin, and embedded in paraffin. These samples were continuously microtomed into sections with a thickness of 4 μm. Each of the sections was stained with haematoxylin/eosin (H&E), anti-COX-2 and anti-iNOS antibodies (Caymen Chemical, Ann Arbor, Mich.).
Referring to FIG. 10(A), MMPP (5 mg/kg, p.o.) (dissolved in 100 μL of PBS including 0.5 μL of DMSO), a vehicle (a negative control), or indomethacin (5 mg/kg, p.o./dissolved in […] of PBS after the dissolution) was administered daily to 7-week-old male C57BL/6 mice for 18 days.

[2] = tested on: RAW 264.7 cells; test: Cell viability (MTT assay) in RAW 264.7 cells; type: cell-based, mouse; details: up to 4 mg/mL
Description: As mouse macrophages, RAW 264.7 macrophages were cultured in a DMEM medium supplemented with 10% FBS. […] of the medium was treated with MMPP, and then stabilized for an hour.
An MTT reagent was added at a concentration of 0.5 mg/mL, and the cells were cultured at 37° C. in an incubator. After the medium was completely removed when 70% of the cells formed crystals, […] of DMSO was added to dissolve the crystals. Subsequently, the optical density was measured at 550 nm.
Morphological changes of the cells were observed under a microscope, and the cell viability was determined using an MTT assay.

[3] = tested on: RAW 264.7 cells; test: Nitrite assay (NO generation) in LPS-induced RAW 264.7 cells; type: cell-based, mouse; details: LPS (1 µg/mL) and MMPP (0 to 4 µg/mL)
Description: 6. Nitrite assay: RAW 264.7 cells were added to a 96-well plate at a density of 1×10^4 cells/well, and LPS […] and TNF-α (10 ng/mL) were added or not added for 24 hours in the presence or absence of various concentrations of MMPP. Accumulation of nitrites in a supernatant was analyzed using a nitric oxide assay kit commercially available from iNtRON Biotechnology (Seongnam, Korea).
In Experimental Example 4, a luciferase activity assay was carried out to determine whether MMPP inhibited generation of LPS-induced infective factors in RAW 264.7 cells. RAW 264.7 cells were transiently infected with an iNOS-luciferase construct, treated with LPS (1 μg/mL) alone or a combination of MMPP and LPS, and then activated for 12 hours.

[4] = tested on: NF-κB and STAT3; test: EMSA and Western blotting of CAIA-induced ankle joint tissues; type: in vivo, mouse
Description: In addition, the DNA binding activities of NF-κB and STAT3 were determined by EMSA. The same amount of the total proteins (20 μg/Lane) was subjected to 10% SDS-PAGE, and STAT3, P-STAT3, p50, p65, IKK, 1 KB, and p-1lκB were detected through Western blotting. A β-actin protein or histone H was used as the control. As a result, it can be seen that MMPP inhibited the STAT3 DNA-binding activity (FIG. 12(A)), the NF-κB STAT3 DNA-binding activity (FIG. 12(B)), nuclear translocation of pSTAT3, p50 and p65, and phosphorylation of IkB, IKKb and IKKa in the CAIA-induced ankle joint tissues (FIGS. 12(C) and 12(D))

[5] = tested on: RAW 264.7 cells; test: ROS, PGE2 and pro-inflammatory cytokine assays in LPS-induced RAW 264.7 cells; type: cell-based, mouse; details: concentration-dependent manner (0 to 4 mg/mL)
Description: 7. PEG2 and cytokine Assays: A PGE2 assay was carried out in the cultured RAW 264.7 cells using an ELISA kit (commercially available from R&D Systems).
8. ROS Assay: An ROS assay was carried out using an ELISA kit (commercially available from Cell Biolabs Inc.).
RAW 264.7 cells were transiently infected with a STAT3-luciferase construct, treated with LPS (1 μg/mL) alone or a combination of MMPP and LPS, and then activated for 12 hours. Thereafter, the luciferase activity, the ROS and PGE2 expression, and a level of pro-inflammatory cytokines were determined.

[6] = 5 mg/kg, p.o. daily, last (18th) day

COc1ccc(C/C=C/c2ccc(O)c(OC)c2)cc1 [MMPP, 2-methoxy-4-(3-(4-methoxyphenyl)prop-1-en-1-yl)phenol]
degrees of bone destruction and fibrosis in ankle joints (histopathologic evaluation) ([1]; 5 mg/kg): remarkably reduced
tissue edema and bone destruction of hind legs (radiographic inspection) ([1]; 5 mg/kg): significantly reduced
clinical score [1, 6]: approximately 4.67
clinical score lower than that of the CAIA group [1, 6]: 66.5%
anti-arthritic effect in CAIA model ([1]; mouse, in vivo): had an anti-arthritic effect
toxicity ([2]; RAW 264.7 cells): no toxicity
viability of the LPS-induced RAW 264.7 cells [2]: not affected
NO generation [3]: reduced in a concentration-dependent manner
NF-κB STAT3 DNA-binding activity [4]: inhibited
STAT3 DNA-binding activity [4]: inhibited
nuclear translocation of pSTAT3, p50 and p65 [4]: inhibited
phosphorylation of IkB, IKKb and IKKa [4]: inhibited
PGE2 expression [5]: inhibited
ROS expression [5]: inhibited
level of pro-inflammatory cytokines (TNF-α, IL-6 and IL-1) [5]: inhibited
